Assay results as given in US20090093633A1, “Organic Compounds” (Novartis AG, priority 2006, published 2009).
Structures can show the parent of a compound that is named as a salt.

Molecular target: adenosine A2A receptor (Homo sapiens, UniProt P29274)
Test: adenosine A2A receptor agonist assay (method of Murphree et al, Molecular Pharmacology 61, 455-462 (2002))
Type: binding
Conditions: method of L. J. Murphree et al, Mol. Pharmacol. 61, 455-462 (2002)
Description: Compounds of formula I and their pharmaceutically acceptable salts are useful as pharmaceuticals. In particular, they activate the adenosine A2A receptor, i.e. they act as A2A receptor agonists.

adenosine A2A receptor, sequence (P29274 whole entry): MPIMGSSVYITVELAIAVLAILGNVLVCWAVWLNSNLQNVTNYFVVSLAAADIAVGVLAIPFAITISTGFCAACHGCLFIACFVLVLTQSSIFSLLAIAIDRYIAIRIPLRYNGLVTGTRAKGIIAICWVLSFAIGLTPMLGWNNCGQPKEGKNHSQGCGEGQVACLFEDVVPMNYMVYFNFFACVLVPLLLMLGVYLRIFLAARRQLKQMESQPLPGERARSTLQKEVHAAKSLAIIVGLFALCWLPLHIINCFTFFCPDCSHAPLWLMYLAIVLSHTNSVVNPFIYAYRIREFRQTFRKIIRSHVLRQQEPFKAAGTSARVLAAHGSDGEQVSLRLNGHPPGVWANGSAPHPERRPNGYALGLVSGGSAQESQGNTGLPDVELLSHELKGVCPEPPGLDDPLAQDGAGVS

| SMILES | Ki [µM] |
| --- | --- |
| Cc1cnn([C@H]2C[C@@H](n3cnc4c(NCC(c5ccccc5)c5ccccc5)nc(NC5CCC(N)CC5)nc43)[C@H](O)[C@@H]2O)c1 (stereo partly drawn) [Example 1, (1R,2S,3R,5S)-3-[2-(4-Amino-cyclohexylamino)-6-(2,2-diphenyl-ethylamino)-purin-9-yl]-5-(4-methyl-pyrazol-1-yl)-cyclopentane-1,2-diol trifluoroacetate] | 0.197 |
| Cc1cnn([C@H]2C[C@@H](n3cnc4c(NCC(c5ccccc5)c5ccccc5)nc(NCCc5cnc[nH]5)nc43)[C@H](O)[C@@H]2O)c1 [Example 4, (1R,2S,3R,5S)-3-{6-(2,2-Diphenyl-ethylamino)-2-[2-(3H-imidazol-4-yl)-ethylamino]-purin-9-yl}-5-(4-methyl-pyrazol-1-yl)-cyclopentane-1,2-diol] | 0.172 |
| NC1CCC(Nc2nc(NCC(c3ccccc3)c3ccccc3)c3ncn([C@@H]4C[C@H](n5cccn5)[C@@H](O)[C@H]4O)c3n2)CC1 (stereo partly drawn) [Example 12, (1R,2S,3R,5S)-3-[2-(4-Amino-cyclohexylamino)-6-(2,2-diphenyl-ethylamino)-purin-9-yl]-5-pyrazol-1-yl-cyclopentane-1,2-diol] | 0.272 |
| Cc1cnn([C@H]2C[C@@H](n3cnc4c(N)nc(N[C@@H]5CCC[C@H]5OCc5ccccc5)nc43)[C@H](O)[C@@H]2O)c1 [Example 22, (1R,2S,3R,5S)-3-[6-Amino-2-((1R,2R)-2-benzyloxy-cyclopentylamino)-purin-9-yl]-5-(4-methyl-pyrazol-1-yl)-cyclopentane-1,2-diol] | 0.138 |
| CCCCC#Cc1nc(N)c2ncn([C@@H]3C[C@H](n4cc(CC)cn4)[C@@H](O)[C@H]3O)c2n1 [Example 37, (1R,2S,3R,5S)-3-(6-Amino-2-hex-1-ynyl-purin-9-yl)-5-(4-ethyl-pyrazol-1-yl)-cyclopentane-1,2-diol] | 0.121 |
| CCCCC#Cc1nc(N)c2ncn([C@@H]3C[C@H](n4cc(CO)cn4)[C@@H](O)[C@H]3O)c2n1 [Example 40, (1R,2S,3R,5S)-3-(6-Amino-2-hex-1-ynyl-purin-9-yl)-5-(4-hydroxymethyl-pyrazol-1-yl)-cyclopentane-1,2-diol] | 0.067 |
| CCc1nnn([C@H]2C[C@@H](n3cnc4c(NCC(c5ccccc5)c5ccccc5)nc(N5CC[C@@H](NC(=O)NC6CCN(c7ccccn7)CC6)C5)nc43)[C@H](O)[C@@H]2O)n1 [Example 45, 1-((R)-1-{6-(2,2-Diphenyl-ethylamino)-9-[(1R,2S,3R,4S)-4-(5-ethyl-tetrazol-2-yl)-2,3-dihydroxy-cyclopentyl]-9H-purin-2-yl}-pyrrolidin-3-yl)-3-(3,4,5,6-tetrahydro-2H-[1,2′]bipyridinyl-4-yl)-urea] | 0.017 |
| CCn1cnc(CCNc2nc(NCC(c3ccccc3)c3ccccc3)c3ncn([C@@H]4C[C@H](n5cc(CO)cn5)[C@@H](O)[C@H]4O)c3n2)c1 [Example 47, (1R,2S,3R,5S)-3-{6-(2,2-Diphenyl-ethylamino)-2-[2-(1-ethyl-1H-imidazol-4-yl)-ethylamino]-purin-9-yl}-5-(4-hydroxymethyl-pyrazol-1-yl)-cyclopentane-1,2-diol] | 0.01 |
| CCc1cnn([C@H]2C[C@@H](n3cnc4c(NCCc5ccccc5)nc(NCCc5cn(CC)cn5)nc43)[C@H](O)[C@@H]2O)c1 [Example 54, (1R,2S,3R,5S)-3-{2-[2-(1-Ethyl-1H-imidazol-4-yl)-ethylamino]-6-phenethylamino-purin-9-yl}-5-(4-ethyl-pyrazol-1-yl)-cyclopentane-1,2-diol] | 0.072 |
| O=C(N[C@@H]1CCNC1)c1nc(NCC(c2ccccc2)c2ccccc2)c2ncn([C@@H]3C[C@H](n4cc(CO)cn4)C(O)C3O)c2n1 (stereo partly drawn) [Example 64, 9-[(1R,4S)-2,3-Dihydroxy-4-(4-hydroxymethyl-pyrazol-1-yl)-cyclopentyl]-6-(2,2-diphenyl-ethylamino)-9H-purine-2-carboxylic acid (R)pyrrolidin-3-yl amide] | 0.049 |
| Cc1nnn([C@H]2C[C@@H](n3cnc4c(NCC(c5ccccc5)c5ccccc5)nc(N5CC[C@@H](NS(C)(=O)=O)C5)nc43)[C@H](O)[C@@H]2O)n1 [Example 67, N-{(R)-1-[9-[(1R,2S,3R,4S)-2,3-Dihydroxy-4-(5-methyl-tetrazol-2-yl)-cyclopentyl]-6-(2,2-diphenyl-ethylamino)-9H-purin-2-yl]pyrrolidin-3-yl}-methanesulfonamide] | 0.071 |
| O=C(NC1CCN(c2ccccn2)CC1)N[C@@H]1CCN(c2nc(NCC(c3ccccc3)c3ccccc3)c3ncn([C@@H]4C[C@H](n5cc(CO)cn5)[C@@H](O)[C@H]4O)c3n2)C1 [Example 77, 1-{(R)-1-[9-[(1R,2S,3R,4S)-2,3-Dihydroxy-4-(4-hydroxymethyl-pyrazol-1-yl)-cyclopentyl]-6-(2,2-diphenyl-ethylamino)-9H-purin-2-yl]-pyrrolidin-3-yl}-3-(3,4,5,6-tetrahydro-2H-[1,2′]bipyridinyl-4-yl)-urea trifluoroacetate] | 0.02 |
| O=C(NC1CCN(c2ccc(C(=O)O)cn2)CC1)N[C@@H]1CCN(c2nc(NCC(c3ccccc3)c3ccccc3)c3ncn([C@@H]4C[C@H](n5cc(CO)cn5)[C@@H](O)[C@H]4O)c3n2)C1 [Example 86, 4-(3-{(R)-1-[9-[(1R,2S,3R,4S)-2,3-Dihydroxy-4-(4-hydroxymethyl-pyrazol-1-yl)-cyclopentyl]-6-(2,2-diphenyl-ethylamino)-9H-purin-2-yl]-pyrrolidin-3-yl}-ureido)-3,4,5,6-tetrahydro-2H-[1,2′]bipyridinyl-5′-carboxylic acid trifluoroacetate] | 0.04 |
| CN(C)[C@@H]1CCN(c2nc(NCC(c3ccccc3)c3ccccc3)c3ncn([C@@H]4C[C@H](n5cc(CO)cn5)[C@@H](O)[C@H]4O)c3n2)C1 [Example 96, (1R,2S,3R,5S)-3-[2-((R)-3-Dimethylamino-pyrrolidin-1-yl)-6-(2,2-diphenyl-ethylamino)-purin-9-yl]-5-(4-hydroxymethyl-pyrazol-1-yl)-cyclopentane-1,2-diol] | 0.002 |
| CCc1nnn([C@H]2C[C@@H](n3cnc4c(NCC(c5ccc(O)cc5)c5ccc(O)cc5)nc(N5CC[C@@H](NC(=O)Nc6ccncc6)C5)nc43)[C@H](O)[C@@H]2O)n1 [Example 109, 1-((R)-1-{6-[2,2-Bis-(4-hydroxy-phenyl)-ethylamino]-9-[(1R,2S,3R,4S)-4-(5-ethyl-tetrazol-2-yl)-2,3-dihydroxy-cyclopentyl]-9H-purin-2-yl}-pyrrolidin-3-yl)-3-pyridin-4-yl-urea hydrochloride] | 0.005 |
| CCc1cnn([C@H]2C[C@@H](n3cnc4c(NCC(c5ccccc5)c5ccccc5)nc(N5CC[C@@H](NC(=O)Nc6ccncc6)C5)nc43)[C@H](O)[C@@H]2O)n1 [Example 127, 1-((R)-1-{6-(2,2-Diphenyl-ethylamino)-9-[(1R,2S,3R,4S)-4-(4-ethyl-[1,2,3]triazol-2-yl)-2,3-dihydroxy-cyclopentyl]9H-purin-2-yl}-pyrrolidin-3-yl)-3-pyridin-4-yl-urea hydrochloride] | 0.003 |
| CCc1nnn([C@H]2C[C@@H](n3cnc4c(NCC(c5ccccc5)c5ccccc5)nc(N5CC[C@@H](NC(=O)NCc6ccnc7ccccc67)C5)nc43)[C@H](O)[C@@H]2O)n1 [Example 150, 1-((R)-1-{6-(2,2-Diphenyl-ethylamino)-9-[(1R,2S,3R,4S)-4-(5-ethyl-tetrazol-2-yl)-2,3-dihydroxy-cyclopentyl]-9H-purin-2-yl}-pyrrolidin-3-yl)-3 quinolin-4-ylmethyl-urea hydrochloride] | 0.006 |
| CCc1nnn([C@H]2C[C@@H](n3cnc4c(NCC(c5ccccc5)c5ccccc5)nc(N5CC[C@@H](NC(=O)Nc6cccc(-c7nnn[nH]7)c6)C5)nc43)[C@H](O)[C@@H]2O)n1 [Example 157, 1-((R)-1-{6-(2,2-Diphenyl-ethylamino)-9-[(1R,2S,3R,4S)-4-(5-ethyl-tetrazol-2-yl)-2,3-dihydroxy-cyclopentyl]-9H-purin-2-yl}-pyrrolidin-3-yl)-3-[3-(1H-tetrazol-5-yl)-phenyl]-urea hydrochloride] | 0.003 |
